The values that follow come from PubChem BioAssay (NCI).

What all share (assay): NCI tumour cell line growth inhibition, 48 h
Assay [1] concerns SR leukemia.
In assay [2] the test system is A549 NSCLC.
The subject of assay [3] is SW-620 colon.
Assay [4] has as its system EKVX NSCLC.
In assay [5] the test system is K-562 leukemia.
For assay [6], the system named is MDA-MB-435.
Assay [7] has as its system NCI-H522 lung.
Assay [8] relates to SNB-19 CNS.
The subject of assay [9] is SNB-75 CNS.
In assay [10] the test system is SF-539 CNS.
Assay [11] deals with HL-60(TB) leukemia.

Each structure is given as a SMILES string.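 Briefly, cells in 96-well plates were exposed to five compound concentrations for 48 h, and endpoints were estimated by linear interpolation. TGI is the concentration that stops growth completely.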 Bounds are passed on as bounds.

For `CCC1(c2ccc(OC)c(OC)c2)CCN2C(=O)C(O)CC21` (stereo not given), the TGI in [1], in assay [2], in [3], in assay [4], in assay [5] and in assay [6] was > 100 µM throughout. In addition, the TGI in assay [7], in assay [8] and in assay [9] was > 100 µM in each case.
Turning to `CC(=O)Nc1ccc2c(c1)nc1c3ccccc3ccn21`, the TGI in assay [1], in [2], in assay [3], in [4], in assay [5] and in assay [10] was > 100 µM each time. In addition, the TGI in assay [11], in assay [6], in assay [7], in assay [8] and in assay [9] was > 100 µM each time.
For the compound `CN1C2CCC1C(CO)C(=O)C2` (stereo not given), the TGI was 75.7 µM in [1]; 43.2 µM in [3]; 72 µM in assay [5]; 52.9 µM in [10]; 26.2 µM in assay [11]; > 100 µM in assay [6]. The figures for the TGI in [7] and in [9] were 34.2 µM and > 100 µM, respectively.
Turning to `OC(CCN1CCN(CCOC(c2ccc(F)cc2)c2ccc(F)cc2)CC1)c1ccc(Br)cc1` (stereo not given), the TGI in [1] was 4.13 µM; in assay [2], 24.1 µM; in [3], 31.2 µM; in assay [4], 17.7 µM; in [5], 7 µM; in [10] it was 5.15 µM. Further, the TGI in assay [11] is 11.2 µM; in assay [6], 6.82 µM; in [7], 16.4 µM; in assay [8], 21.2 µM; in [9], 23.7 µM.
In the case of `O=C1CCC(CCc2nc3ccccc3[nH]2)(c2ccccc2)C(=O)N1` (stereo not given), the TGI in assay [1], in [2], in assay [3], in [4], in [5] and in assay [10] was > 100 µM in each case. The TGI in assay [11], in assay [6], in assay [7], in [8] and in assay [9] was > 100 µM throughout.
Regarding `Oc1ccc(C[C@@H]2CN[C@H](Cc3ccc(O)c(Br)c3)CN2)cc1`, the TGI in [1], in assay [2], in assay [3], in assay [4], in [10] and in assay [11] was > 100 µM throughout. For the same compound, the TGI in [6], in assay [7] and in assay [9] was > 100 µM throughout.
Take `CC1OC2OC3C(OCC(O)C3O)OC(=O)[C@]34CCC(C)(C)CC3C3=CCC5[C@@]6(C)C[C@H](O)[C@H](OC7OC(CO)C(O)C(O)C7OC7OC(COC(=O)CC(C)(O)CC(=O)OC1C(OC1OC(CO)C(O)C(O)C1O)C2O)C(O)C(O)C7O)[C@@](C)(CO)C6CC[C@@]5(C)[C@]3(C)CC4` (stereo not given in full): the TGI turned out to be 12.4 µM in assay [1]; 0.293 µM in assay [2]; 11.2 µM in assay [3]; 15.5 µM in [10]; 3.13 µM in assay [11]; 4.71 µM in [6]. The values for the TGI in [7], in assay [8] and in [9] were 5.89 µM, 16 µM and 6.79 µM, respectively.
As for `CCC(C)C(NC(=O)C(CCCC[N+](=N)N)NC(=O)C(CCCC[N+](=N)N)NC(=O)c1ccc(OC)cc1)C(=O)NC(CCCC[N+](=N)N)C(=O)N1CCCC1C(=O)NC(CCCCN)C(=O)NC(CC(C)C)C(N)=O` (stereo not given), the TGI in [1], in [2], in assay [3], in assay [4], in assay [5] and in [10] was > 100 µM in each case. For the same compound, the TGI in [6], in assay [7], in [8] and in [9] was > 100 µM each time.
Regarding `CC(C)(C)C#CI1OC(=O)c2ccccc21`, the TGI in assay [1] is 3.74 µM; in [2] it was 31.9 µM; in assay [3], 10.3 µM; in assay [4], 17.5 µM; in assay [5] it was 11.7 µM; in assay [10], 7.13 µM. In addition, the TGI is 18.4 µM in [6], 3.82 µM in assay [7], 22.9 µM in [8] and 16 µM in assay [9].
Take `CC(Br)CN(CC(C)Br)c1ccc2c(c1)Cc1ccccc1-2` (stereo not given): the TGI was 14.9 µM in [1]; 24.4 µM in [2]; 40.2 µM in assay [3]; 30.3 µM in assay [4]; 33.2 µM in [5]; 15.6 µM in assay [11]. The TGI turned out to be 28 µM in assay [6], 21.2 µM in assay [7], 27.9 µM in assay [8] and 25.2 µM in assay [9].
Turning to `Fc1ccc(OCc2ccc3nc(-c4ccccc4)c(Cl)nc3c2)cc1`, the TGI in assay [1] is 40.8 µM; in assay [2] it was > 100 µM; in assay [3], > 100 µM; in assay [4] it was > 100 µM; in assay [10], 51.8 µM; in assay [11], > 100 µM. Besides, the TGI in [6] is > 100 µM; in assay [7], 24.4 µM; in assay [9], 42.8 µM.
For `CN(C)CCN1C(=O)N(CCN(C)C)c2c3cc(O)ccc3nc3c([N+](=O)[O-])ccc1c23`, the TGI was 0.807 µM in [1]; 35.5 µM in assay [2]; 24.7 µM in assay [3]; 14.5 µM in assay [5]; 32.9 µM in [6]; 33.3 µM in assay [7]. For the same compound, the TGI was 24.2 µM in assay [8] and 44.9 µM in assay [9].
